From patent US20230104936A1, “TRPML MODULATORS” (Casma Therapeutics, Inc., priority 2019, published 2023) come the findings set out here.

In general, AC50 refers to the concentration at which the activity in the assay is half-maximal.

Each structure is given as a SMILES string. Bounds are passed on as bounds.

The first test concerns TFEB. Nature of the test: TFEB nuclear translocation assay, HeLa wt cells. The format is cell-based. The settings on record: 2 hrs compound treatment, Table 1 does not say HeLa wt or TRPML1 KO. Summed up:
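Read-out is the ratio of TFEB immunofluorescence in the nucleus to that in a ring just outside it, measured by automated imaging. HeLa wt cells received compounds for 2 hrs at 37° C before fixation and staining; AC50 values come from this ratio.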
`Cc1ccc(S(=O)(=O)C(C)c2cccc(F)c2N2CCC(CN3C4CCC3COC4)CC2)cc1` (single isomer, unassigned) [Compound A-924, 8-((1-(2-fluoro-6-(1-tosylethyl)phenyl)piperidin-4-yl)methyl)-3-oxa-8-azabicyclo[3.2.1]octane] showed an AC50 not above 2 µM.
`C[C@H](c1cccc(F)c1N1CCC(F)(F)CC1)S(=O)(=O)c1ccc(S(=N)(=O)N(C)C)cc1` (single isomer, unassigned) [Compound A-890] yielded an AC50 of 2.01 to 8 µM.
Take `CC(c1cccc(F)c1N1CCCCC1)S(=O)(=O)c1ccc(S(=N)(=O)C(F)F)cc1` (single isomer, unassigned) [Compound A-940, (difluoromethyl)(4-((1-(3-fluoro-2-(piperidin-1-yl)phenyl)ethyl)sulfonyl)phenyl)(imino)-l6-sulfanone]: the AC50 is not above 2 µM.

Staying with this test, now noted: Homo sapiens, HeLa, 2 h, 2 hrs compound treatment, Table 1 does not say HeLa wt or TRPML1 KO.
`COCC1(C)CCN(c2ccccc2NS(=O)(=O)Cc2ccc(C(F)F)cc2)CC1` [Compound A-647, 1-[4-(difluoromethyl)phenyl]-N-{2-[4-(methoxymethyl)-4-methylpiperidin-1-yl]phenyl}methanesulfonamide] showed an AC50 of 8.01 to 9.99 µM.
`O=S(=O)(Nc1ccccc1N1CCC(c2ccc(Cl)cc2F)CC1)c1ccc(C(F)(F)F)cc1F` [Compound A-159, N-{2-[4-(4-chloro-2-fluorophenyl)piperidin-1-yl]phenyl}-2-fluoro-4-(trifluoromethyl)benzene-1-sulfonamide] yielded an AC50 of 2.01 to 8 µM.
The same measure, in the same setting: under `COc1ccc(S(=O)(=O)Nc2ccccc2Oc2ccc(F)cc2F)cc1` [Compound A-186, N-(2-(2,4-difluorophenoxy)phenyl)-4-methoxybenzenesulfonamide] stands not below 10 µM; under `CC(c1cccc(F)c1N1CCC(CN2C3CCC2COC3)CC1)S(=O)(=O)c1ccc(S(C)(=O)=O)cc1` (centres unmarked) [Compound A-904, 8-[(1-{2-fluoro-6-[1-(4-methanesulfonylbenzenesulfonyl)ethyl]phenyl}piperidin-4-yl)methyl]-3-oxa-8-azabicyclo[3.2.1]octane], 2.01 to 8 µM; under `COCC1(C)CCN(c2ccccc2NS(=O)(=O)c2ccc3c(c2)CC(C)(C)C3=O)CC1` [Compound A-639, N-{2-[4-(methoxymethyl)-4-methylpiperidin-1-yl]phenyl}-2,2-dimethyl-1-oxo-2,3-dihydro-1H-indene-5-sulfonamide], not below 10 µM.
Still for that read-out and setting: then `CN(C)S(=O)(=O)c1ccc(S(=O)(=O)Nc2cccc(F)c2N2CCC(CN3CCC(F)(F)CC3)CC2)cc1` [Compound A-789, N4-(2-{4-[(4,4-difluoropiperidin-1-yl)methyl]piperidin-1-yl}-3-fluorophenyl)-N1,N1-dimethylbenzene-1,4-disulfonamide], with not above 2 µM; and `C[C@@H]1CN(CC2CCN(c3c(F)cccc3NS(=O)(=O)c3ccc(C(F)(F)C4CC4)cc3)CC2)C[C@H](C)O1` [Compound A-814, 4-(cyclopropyldifluoromethyl)-N-[2-(4-{[(2R,6S)-2,6-dimethylmorpholin-4-yl]methyl}piperidin-1-yl)-3-fluorophenyl]benzene-1-sulfonamide], with not above 2 µM; and `O=S(=O)(CC12CC3CC(CC(C3)C1)C2)Nc1cccc(Cl)c1N1CCOCC1` [Compound A-394, 1-(adamantan-1-yl)-N-[3-chloro-2-(morpholin-4-yl)phenyl]methanesulfonamide], with 2.01 to 8 µM.
Same read-out and setting: then `COCC1(C)CCN(c2ccccc2NS(=O)(=O)c2ccc(C3(C(F)(F)F)N=N3)cc2)CC1` [Compound A-740, N-{2-[4-(methoxymethyl)-4-methylpiperidin-1-yl]phenyl}-4-[3-(trifluoromethyl)-3H-diazirin-3-yl]benzene-1-sulfonamide], with 8.01 to 9.99 µM; and `COc1ccc(S(=O)(=O)Nc2ccccc2N2CCC(c3ccc(F)cc3F)CC2)nc1` [Compound A-118, N-{2-[4-(2,4-difluorophenyl)piperidin-1-yl]phenyl}-5-methoxypyridine-2-sulfonamide], with 2.01 to 8 µM; and `CS(=N)(=O)c1ccc(S(=O)(=O)Nc2ccccc2N2CCC(c3c(F)cccc3F)CC2)cc1` (centres unmarked) [Compound A-166, N-{2-[4-(2,6-difluorophenyl)piperidin-1-yl]phenyl}-4-[imino(methyl)oxo-λ^6-sulfanyl]benzene-1-sulfonamide], with 2.01 to 8 µM.
For `COc1ccc(N2CCOCC2)c(NS(=O)(=O)c2ccc3c(c2)CCC3)c1` [Compound A-521, N-[5-methoxy-2-(morpholin-4-yl)phenyl]-2,3-dihydro-1H-indene-5-sulfonamide], the AC50 was not above 2 µM.
On the same count and under the same terms, then `CN(C)C1(c2ccc(Cl)cc2F)CCN(c2ccccc2NS(=O)(=O)c2ccc(S(=O)(=O)N(C)C)cc2)CC1` [Compound A-211, N4-{2-[4-(4-chloro-2-fluorophenyl)-4-(dimethylamino)piperidin-1-yl]phenyl}-N1,N1-dimethylbenzene-1,4-disulfonamide], with not above 2 µM; and `COCC1(C)CCN(c2ccccc2NC(C)c2ccc(S(=O)(=O)N(C)C)cc2)CC1` (centres unmarked) [Compound A-490, 4-[1-({2-[4-(methoxymethyl)-4-methylpiperidin-1-yl]phenyl}amino)ethyl]-N,N-dimethylbenzene-1-sulfonamide], with not below 10 µM.
On the same count and under the same terms, then `O=S(=O)(Nc1ccccc1N1CCC(c2ccc(Cl)cc2F)CC1)c1ccc(F)c(F)c1` [Compound A-80, N-{2-[4-(4-chloro-2-fluorophenyl)piperidin-1-yl]phenyl}-3,4-difluorobenzene-1-sulfonamide], with 2.01 to 8 µM; and `O=S(=O)(Nc1cccc(F)c1N1CCC(CN2C3CCC2COC3)CC1)c1ccc(C(F)(F)C2CC2)cc1` [Compound A-919, 4-(cyclopropyldifluoromethyl)-N-{3-fluoro-2-[4-({3-oxa-8-azabicyclo[3.2.1]octan-8-yl}methyl)piperidin-1-yl]phenyl}benzene-1-sulfonamide], with not above 2 µM.
Still for that read-out and setting: under `O=S(=O)(Nc1cc(Cl)ccc1N1CCCC12CCCOC2)c1ccc2c(c1)CCC2` (centres unmarked) [Compound A-405, N-(5-chloro-2-{7-oxa-1-azaspiro[4.5]decan-1-yl}phenyl)-2,3-dihydro-1H-indene-5-sulfonamide] stands 2.01 to 8 µM; under `CN(C)S(=O)(=O)c1ccc(S(=O)(=O)Nc2ccccc2N2CCCC3(CCCOC3)C2)cc1` (centres unmarked) [Compound A-511, N1,N1-dimethyl-N4-(2-{2-oxa-8-azaspiro[5.5]undecan-8-yl}phenyl)benzene-1,4-disulfonamide], not above 2 µM; under `CN1c2ccccc2N(S(=O)(=O)c2ccc(S(=O)(=O)N(C)C)cc2)CC1c1ccc(Cl)cc1F` (centres unmarked) [Compound A-146, 4-{[3-(4-chloro-2-fluorophenyl)-4-methyl-1,2,3,4-tetrahydroquinoxalin-1-yl]sulfonyl}-N,N-dimethylbenzene-1-sulfonamide], not above 2 µM.
For the compound `CN(C)S(=O)(=O)c1ccc(S(=O)(=O)Nc2ccccc2N2CCN(CC3CCOCC3)CC2)cc1` [Compound A-510, N1,N1-dimethyl-N4-(2-{4-[(oxan-4-yl)methyl]piperazin-1-yl}phenyl)benzene-1,4-disulfonamide], the AC50 was not above 2 µM.
In turn, `CS(=O)(=O)c1ccc(S(=O)(=O)Nc2ccccc2N2CCC3(CC2)CN(C(=O)OC2CCOC2)c2cc(F)ccc23)cc1` (centres unmarked) [Compound A-469, oxolan-3-yl 6-fluoro-1′-[2-(4-methanesulfonylbenzenesulfonamido)phenyl]-1,2-dihydrospiro[indole-3,4′-piperidine]-1-carboxylate] had a half-maximal activity concentration (AC50) not above 2 µM.
The same measure, in the same setting: then `CN(C)S(=O)(=O)c1ccc(S(=O)(=O)Nc2ccccc2N2CCN(c3ncccc3F)CC2)cc1` [Compound A-51, N4-{2-[4-(3-fluoropyridin-2-yl)piperazin-1-yl]phenyl}-N1,N1-dimethylbenzene-1,4-disulfonamide], with 2.01 to 8 µM; and `Cc1nn(S(=O)(=O)c2ccc(S(=O)(=O)N(C)C)cc2)cc1C1CCN(c2ccc(Cl)cc2F)CC1` [Compound A-38, 4-({4-[1-(4-chloro-2-fluorophenyl)piperidin-4-yl]-3-methyl-1H-pyrazol-1-yl}sulfonyl)-N,N-dimethylbenzene-1-sulfonamide], with not above 2 µM; and `CN(C)S(=O)(=O)c1ccc(S(=O)(=O)Nc2ccccc2N2CCCC23CCOC3)cc1` (centres unmarked) [Compound A-508, N1,N1-dimethyl-N4-(2-{7-oxa-1-azaspiro[4.4]nonan-1-yl}phenyl)benzene-1,4-disulfonamide], with 2.01 to 8 µM.
In the case of `CC(c1cccc(F)c1N1CCC(CN2C3CCC2COC3)CC1)S(=O)(=O)c1ccc2c(c1)CC(C)(C)O2` (centres unmarked) [Compound A-886, 8-{[1-(2-{1-[(2,2-dimethyl-2,3-dihydro-1-benzofuran-5-yl)sulfonyl]ethyl}-6-fluorophenyl)piperidin-4-yl]methyl}-3-oxa-8-azabicyclo[3.2.1]octane], the AC50 was not above 2 µM.
Same read-out and setting: then `COCC1(C)CCN(c2ccccc2NS(=O)(=O)Cc2cccc(C(C)(C)C)c2)CC1` [Compound A-627, 1-(3-tert-butylphenyl)-N-{2-[4-(methoxymethyl)-4-methylpiperidin-1-yl]phenyl}methanesulfonamide], with 2.01 to 8 µM; and `CN(C)S(=O)(=O)c1ccc(S(=O)(=O)Nc2ccccc2N2CCC(COC(F)(F)F)CC2)cc1` [Compound A-696, N1,N1-dimethyl-N4-(2-{4-[(trifluoromethoxy)methyl]piperidin-1-yl}phenyl)benzene-1,4-disulfonamide], with not above 2 µM; and `O=S(=O)(Nc1ccccc1N1CCC(c2ccc(Cl)cc2F)CC1)c1ccc(C(F)(F)F)cc1` [Compound A-83, N-{2-[4-(4-chloro-2-fluorophenyl)piperidin-1-yl]phenyl}-4-(trifluoromethyl)benzene-1-sulfonamide], with not above 2 µM.
`COC1Cc2ccc(S(=O)(=O)Nc3ccccc3N3CCC4(CC3)COC(C)(C)C4)cc2C1` (centres unmarked) [Compound A-659, N-(2-{3,3-dimethyl-2-oxa-8-azaspiro[4.5]decan-8-yl]phenyl)-2-methoxy-2,3-dihydro-1H-indene-5-sulfonamide] showed an AC50 of 2.01 to 8 µM.
